{
  "source": "patent US7803783B2",
  "about": "“Use of WNT inhibitors to augment therapeutic index of chemotherapy” (The Board of Trustees of the Leland Stanford Junior …, priority 2002, dated 2010)",
  "key": {"[1]": {"test_system": "wild type mouse bone marrow HSCs", "test": "In vitro HSC proliferation assay with purified Wnt3A", "type": "cell-based", "protocol": "FIGS. 5A-5D. Wild Type HSCs proliferate to purified Wnt3A. Purified wild type mouse bone marrow HSCs were sorted by FACS and plated at 5 or 10 cells/well into 60 well Terasaki plates. Cells were incubated in X-vivo 15 (Bio Whittaker), 10% FBS, 5×10^−5M 2-Mercaptoethanol, and 1×10^−4M random methylated beta-cyclodextrin (CTD, Inc.) in the presence of either purified Wnt3A (at approx. 100 ng/ml) plus SLF (10 ng/ml) or SLF (10 ng/ml) alone, as a control. (SLF dose required ranged from 7.5 ng/ml-100 ng/ml depending on mouse strain used). Cell growth was monitored over a period of 7-9 days in culture, and is shown as total cell response (A) and the average frequency of responding wells (B) representative of over 9 independent experiments. To determine phenotypic characteristics, cells were plated in bulk (3500 cells) in 96 well plates and incubated in the presence of purified or unpurified Wnt3A.\nPurified Wnt protein can regulate HSC self-renewal in the same manner as β-catenin in BCL-2 transgenic HSCs. To ensure that this response was not dependent on BCL-2 over-expression, we specifically tested whether wild type HSCs respond in a similar manner to purified Wnt3A as well. Over a period of days, HSCs plated at 1-20 cells per well, responded extremely robustly to Wnt3A in contrast to control conditions (e.g. 184 cells versus 0 when plated at 5 cells/well) (FIG. 5). The average frequency of cells that responded to Wnt3A over 3 independent experiments was 17-fold more than the proliferation to control conditions (limiting dose of SLF) when plated at 10 cells/well. […] Furthermore, the phenotypic characteristics of HSCs treated with purified or unpurified Wnt3A were dramatically different. […] Furthermore, a significant fraction of the lineage negative population expressed c-Kit and Sca-1 consistent with a HSC phenotype (D).\nIn vitro HSC proliferation assays. Freshly purified or virally transduced HSCs were plated at 1 to 20 cells per well in Terasaki plates. Cells were sorted into wells containing serum-free medium (X-vivo15, BioWhittaker) supplemented with 5×10^−5 M 2-mercaptoethanol and the indicated growth factors. Proliferation was monitored by counting the number of cells in each well at defined intervals. For longer-term cultures, transduced HSCs were plated in 96-well plates in the absence or presence of SLF (1 ng ml^−1), and the number of cells generated was monitored by cell counting at defined intervals. For inhibition of growth by CRD or axin, cells were cultured in the presence of mitogenic factors (SLF (30 ng ml^−1), Flt-3L (30 ng ml^−1), interleukin-6 (10 ng ml^−1))."}, "[2]": {"test_system": "HSCs", "test": "Transplantation of Wnt3A-treated HSCs into lethally irradiated recipient mice", "type": "in vivo, mouse", "protocol": "To test whether the cells treated with purified Wnt3A underwent self-renewal functionally, purified HSCs were plated as 1 cell or as 10 cells, treated with Wnt3A and each well containing proliferating cells transplanted individually into lethally irradiated recipient mice along with 300,000 Sca-1^− Bone Marrow cells (A). […] Since the empirically observed frequency of reconstitution of resting HSCs is ˜10% and of cycling HSCs ˜2%, the observed frequency of reconstitution of 100% for 1 plated cells is consistent with Wnt3A inducing a 10- to 50-fold increase in HSC activity, a range similar to that seen with BCL-2 transgenic HSCs.\nIn vivo analysis of HSC function."}, "[3]": {"test_system": "LEF-1/TCF reporter (TOP-dGFP)", "test": "Lentiviral LEF-1/TCF reporter assay in HSCs in vitro", "type": "cell-based, mouse", "settings": "HSCs stimulated with Wnt3a about 100 ng/ml"}, "[4]": {"test_system": "human bone marrow HSCs", "test": "Proliferation of human bone marrow HSCs with soluble Wnt3a", "type": "cell-based", "settings": "absence of any other growth factor"}},
  "data": [
    {"substance": "Wnt3a", "values": [
      {"measurement": "average frequency of cells that responded relative to control conditions", "setting": "[1]; 10 cells/well, 3 independent experiments, control limiting dose of SLF", "result": 17, "unit": "fold"},
      {"measurement": "lineage marker phenotype of treated HSCs", "setting": "[1]; after 7 days in culture", "result": "negative for lineage markers"},
      {"measurement": "total cell response", "setting": "[1]; plated at 5 cells/well, control 0", "result": 184, "unit": "cells"},
      {"measurement": "numbers of progeny generated by singly plated HSCs compared with control conditions", "setting": "[1]; singly plated HSCs, presence of Wnt3a", "result": "six-fold"},
      {"measurement": "frequency of reconstitution", "setting": "[2]; 1 plated cell treated with Wnt3A", "result": 100, "unit": "%"},
      {"measurement": "reconstitution efficiency", "setting": "[2]; wells plated with 10 cells or 5 cells", "result": 100, "unit": "%"},
      {"measurement": "TOP-dGFP reporter activity (GFP expression)", "setting": "[3]", "result": "significant reporter activity"},
      {"measurement": "proliferation of highly purified human bone marrow HSCs", "setting": "[4]", "result": "induces proliferation"}
    ]}
  ]
}
